From ChEMBL document CHEMBL1126965, “Synthesis and vitro antibacterial activity of hygromycin a analogs modified at the C4 aryl position” (1993)
Converted amounts (≈) assume the structure as drawn.

These compounds were tested on Brachyspira hyodysenteriae (assay: In vitro antibacterial activity against Serpulina (Treponema) hyodysenteriae).
Assay type: functional

SMILES | MIC [µg/mL]
CC(=O)[C@@H]1C[C@H](O)[C@H](Oc2ccc(/C=C(\C)C(=O)N[C@@H]3[C@H](O)[C@@H](O)[C@H]4OCO[C@H]4[C@@H]3O)cc2O)O1 | > 100
C=CCOc1ccc(/C=C(\C)C(=O)N[C@@H]2[C@H](O)[C@@H](O)[C@H]3OCO[C@H]3[C@@H]2O)cc1F | 1.56 (≈ 3.81 µM)
CC(=O)C1O[C@@H](Oc2ccc(/C=C(\C)C(=O)N[C@@H]3[C@H](O)[C@@H](O)[C@H]4OCO[C@H]4[C@@H]3O)cc2O)[C@@H](O)C1Sc1ccccc1 (some centres undefined) | > 100
C/C(=C\c1ccc(Cc2ccccc2)c(O)c1)C(=O)N[C@@H]1[C@H](O)[C@@H](O)[C@H]2OCO[C@H]2[C@@H]1O | > 200
C/C(=C\c1ccc(OCc2ccccc2)c(O)c1)C(=O)N[C@@H]1[C@H](O)[C@@H](O)[C@H]2OCO[C@H]2[C@@H]1O | 25 (≈ 54.6 µM)
C/C(=C\c1ccc(N2CCCC2)cc1)C(=O)N[C@@H]1[C@H](O)[C@@H](O)[C@H]2OCO[C@H]2[C@@H]1O | 6.25 (≈ 15.5 µM)
CCOc1ccc(/C=C(\C)C(=O)N[C@@H]2[C@H](O)[C@@H](O)[C@H]3OCO[C@H]3[C@@H]2O)cc1O | 1.56 (≈ 3.95 µM)
C/C(=C\c1ccc(OCC(O)CO)c(O)c1)C(=O)N[C@@H]1[C@H](O)[C@@H](O)[C@H]2OCO[C@H]2[C@@H]1O (some centres undefined) | 25 (≈ 56.6 µM)
C/C(=C\c1ccc(F)c(F)c1)C(=O)N[C@@H]1[C@H](O)[C@@H](O)[C@H]2OCO[C@H]2[C@@H]1O | > 200
C#CCOc1ccc(/C=C(\C)C(=O)N[C@@H]2[C@H](O)[C@@H](O)[C@H]3OCO[C@H]3[C@@H]2O)cc1O | 6.25 (≈ 15.4 µM)
C/C(=C\c1ccc(OCOCCO)c(O)c1)C(=O)N[C@@H]1[C@H](O)[C@@H](O)[C@H]2OCO[C@H]2[C@@H]1O | 25 (≈ 56.6 µM)
C/C(=C\c1cccc(O)c1)C(=O)N[C@@H]1[C@H](O)[C@@H](O)[C@H]2OCO[C@H]2[C@@H]1O | > 200
C/C(=C\c1ccc(OCC(N)=O)c(O)c1)C(=O)N[C@@H]1[C@H](O)[C@@H](O)[C@H]2OCO[C@H]2[C@@H]1O | > 200
C/C(=C\c1ccc(OC2CCCC2)c(O)c1)C(=O)N[C@@H]1[C@H](O)[C@@H](O)[C@H]2OCO[C@H]2[C@@H]1O | 6.25 (≈ 14.4 µM)
CC(=O)C1=C[C@H](O)[C@H](Oc2ccc(/C=C(\C)C(=O)N[C@@H]3[C@H](O)[C@@H](O)[C@H]4OCO[C@H]4[C@@H]3O)cc2O)O1 | 25 (≈ 50.7 µM)
C=C(C)COc1ccc(/C=C(\C)C(=O)N[C@@H]2[C@H](O)[C@@H](O)[C@H]3OCO[C@H]3[C@@H]2O)cc1O | 3.13 (≈ 7.43 µM)

SMILES | MIC [µg/mL]
C/C(=C\c1ccc(N)c(O)c1)C(=O)N[C@@H]1[C@H](O)[C@@H](O)[C@H]2OCO[C@H]2[C@@H]1O | > 200
CCCCCOc1ccc(/C=C(\C)C(=O)N[C@@H]2[C@H](O)[C@@H](O)[C@H]3OCO[C@H]3[C@@H]2O)cc1O | > 200
C/C(=C\c1ccc(-c2ccccc2)cc1)C(=O)N[C@@H]1[C@H](O)[C@@H](O)[C@H]2OCO[C@H]2[C@@H]1O | 12.5 (≈ 30.4 µM)
C/C(=C\c1ccc(OCCF)c(O)c1)C(=O)N[C@@H]1[C@H](O)[C@@H](O)[C@H]2OCO[C@H]2[C@@H]1O | 6.25 (≈ 15.1 µM)
CSC1C(C(C)=O)O[C@@H](Oc2ccc(/C=C(\C)C(=O)N[C@@H]3[C@H](O)[C@@H](O)[C@H]4OCO[C@H]4[C@@H]3O)cc2O)[C@H]1O (some centres undefined) | > 100
C/C(=C\c1ccc(N2CCCC2)c(F)c1)C(=O)N[C@@H]1[C@H](O)[C@@H](O)[C@H]2OCO[C@H]2[C@@H]1O | 6.25 (≈ 14.8 µM)
CCNc1ccc(/C=C(\C)C(=O)N[C@@H]2[C@H](O)[C@@H](O)[C@H]3OCO[C@H]3[C@@H]2O)cc1O | 100 (≈ 254 µM)
COc1ccc(/C=C(\C)C(=O)N[C@@H]2[C@H](O)[C@@H](O)[C@H]3OCO[C@H]3[C@@H]2O)cc1O | 12.5 (≈ 32.8 µM)
CCOCOc1ccc(/C=C(\C)C(=O)N[C@@H]2[C@H](O)[C@@H](O)[C@H]3OCO[C@H]3[C@@H]2O)cc1O | 25 (≈ 58.8 µM)
CCCN(CC)c1ccc(/C=C(\C)C(=O)N[C@@H]2[C@H](O)[C@@H](O)[C@H]3OCO[C@H]3[C@@H]2O)cc1O | > 200
C#CCOc1ccc(/C=C(\C)C(=O)N[C@@H]2[C@H](O)[C@@H](O)[C@H]3OCO[C@H]3[C@@H]2O)cc1F | 6.25 (≈ 15.3 µM)
C=CC(C)Oc1ccc(/C=C(\C)C(=O)N[C@@H]2[C@H](O)[C@@H](O)[C@H]3OCO[C@H]3[C@@H]2O)cc1O (some centres undefined) | 25 (≈ 59.3 µM)
CCCCOc1ccc(/C=C(\C)C(=O)N[C@@H]2[C@H](O)[C@@H](O)[C@H]3OCO[C@H]3[C@@H]2O)cc1O | 1.56 (≈ 3.68 µM)
C=CCN(C(C)=O)c1ccc(/C=C(\C)C(=O)N[C@@H]2[C@H](O)[C@@H](O)[C@H]3OCO[C@H]3[C@@H]2O)cc1O | > 200
C/C(=C\c1ccc(O)c(O)c1)C(=O)NC1[C@@H](O)[C@@H]2OCO[C@@H]2[C@H](O)[C@H]1O (some centres undefined) | 200 (≈ 544 µM)
C=CCOc1ccc(/C=C(\C)C(=O)N[C@@H]2[C@H](O)[C@@H](O)[C@H]3OCO[C@H]3[C@@H]2O)cc1O | 0.78 (≈ 1.91 µM)

What follows are compounds tested on Brachyspira hyodysenteriae (assay: In vitro antibacterial activity against Serpulina (Treponema) hyodysenteriae was tested and is expressed as minimum inhibitory concentration: Value ranges from (0.39-0.78 ug/mL)).
Assay type: functional

SMILES | MIC [µg/mL]
C/C(=C\c1ccc(OCC2CC2)c(O)c1)C(=O)N[C@@H]1[C@H](O)[C@@H](O)[C@H]2OCO[C@H]2[C@@H]1O | 0.39 (≈ 0.925 µM)

These compounds were tested on Brachyspira hyodysenteriae (assay: In vitro antibacterial activity against Serpulina (Treponema) hyodysenteriae was tested and is expressed as minimum inhibitory concentration: Value ranges from (0.78-1.56 ug/mL)).
Assay type: functional

SMILES | MIC [µg/mL]
CCCOc1ccc(/C=C(\C)C(=O)N[C@@H]2[C@H](O)[C@@H](O)[C@H]3OCO[C@H]3[C@@H]2O)cc1O | 0.78 (≈ 1.91 µM)
CSCCCOc1ccc(/C=C(\C)C(=O)N[C@@H]2[C@H](O)[C@@H](O)[C@H]3OCO[C@H]3[C@@H]2O)cc1O | 0.78 (≈ 1.71 µM)
CC(=O)[C@H]1O[C@@H](Oc2ccc(/C=C(\C)C(=O)N[C@@H]3[C@H](O)[C@@H](O)[C@H]4OCO[C@H]4[C@@H]3O)cc2O)[C@@H](O)[C@@H]1O [HYGROMYCIN A] | 0.78 (≈ 1.52 µM)

Each compound was assayed on Brachyspira hyodysenteriae (assay: In vitro antibacterial activity against Serpulina (Treponema) hyodysenteriae was tested and is expressed as minimum inhibitory concentration: Value ranges from ([…] ug/mL)).
Assay type: functional

SMILES | MIC [µg/mL]
CC(=O)CCCOc1ccc(/C=C(\C)C(=O)N[C@@H]2[C@H](O)[C@@H](O)[C@H]3OCO[C@H]3[C@@H]2O)cc1O | 12.5 (≈ 27.7 µM)

What follows are compounds tested on Brachyspira hyodysenteriae (assay: In vitro antibacterial activity against Serpulina (Treponema) hyodysenteriae was tested and is expressed as minimum inhibitory concentration: Value ranges from (12.5-25 ug/mL)).
Assay type: functional

SMILES | MIC [µg/mL]
CCCNc1ccc(/C=C(\C)C(=O)N[C@@H]2[C@H](O)[C@@H](O)[C@H]3OCO[C@H]3[C@@H]2O)cc1O | 12.5 (≈ 30.6 µM)
C=CCNc1ccc(/C=C(\C)C(=O)N[C@@H]2[C@H](O)[C@@H](O)[C@H]3OCO[C@H]3[C@@H]2O)cc1O | 12.5 (≈ 30.8 µM)
CCCCc1ccc(/C=C(\C)C(=O)N[C@@H]2[C@H](O)[C@@H](O)[C@H]3OCO[C@H]3[C@@H]2O)cc1 | 12.5 (≈ 31.9 µM)

The compounds below were run on Brachyspira hyodysenteriae (assay: In vitro antibacterial activity against Serpulina (Treponema) hyodysenteriae was tested and is expressed as minimum inhibitory concentration: Value ranges from (3.13-6.25 ug/mL)).
Assay type: functional

SMILES | MIC [µg/mL]
CCCCc1ccc(/C=C(\C)C(=O)N[C@@H]2[C@H](O)[C@@H](O)[C@H]3OCO[C@H]3[C@@H]2O)cc1O | 3.13 (≈ 7.68 µM)
C/C(=C\c1ccc(OCc2cccs2)c(O)c1)C(=O)N[C@@H]1[C@H](O)[C@@H](O)[C@H]2OCO[C@H]2[C@@H]1O | 3.13 (≈ 6.75 µM)

What follows are compounds tested on Brachyspira hyodysenteriae (assay: In vitro antibacterial activity against Serpulina (Treponema) hyodysenteriae was tested and is expressed as minimum inhibitory concentration: Value ranges from (50-100 ug/mL)).
Assay type: functional

SMILES | MIC [µg/mL]
C/C(=C\c1ccc(OCCO)c(O)c1)C(=O)N[C@@H]1[C@H](O)[C@@H](O)[C@H]2OCO[C@H]2[C@@H]1O | 50 (≈ 122 µM)

What follows are compounds tested on Brachyspira hyodysenteriae (assay: In vitro antibacterial activity against Serpulina (Treponema) hyodysenteriae was tested and is expressed as minimum inhibitory concentration: Value ranges from (6.25-12.5 ug/mL)).
Assay type: functional

SMILES | MIC [µg/mL]
COc1ccc(/C=C(\C)C(=O)N[C@@H]2[C@H](O)[C@@H](O)[C@H]3OCO[C@H]3[C@@H]2O)cc1F | 6.25 (≈ 16.3 µM)
